Data from ChEMBL document CHEMBL3045406, “Enantioselective Relieving Activity of α-Methylbenzylphenylureas toward Bensulfuron-methyl Injury to Rice (Oryza sativa)” (Biosci Biotechnol Biochem, 1999).

Legend:
[1] = system: Oryza sativa; assay: Safener indices, ratio of compound effect of Oryza sativa (rice) growth rate to relieving activity against bensulfuron-methyl induced injury to Oryza sativa growth rate at 10 uM
[2] = system: Oryza sativa; assay: Effect on Oryza sativa (rice) assessed as growth rate at 0.1 uM relative to control; format: organism-based; settings: in vivo
[3] = system: Oryza sativa; assay: Safener indices, ratio of compound effect of Oryza sativa (rice) growth rate to relieving activity against bensulfuron-methyl induced injury to Oryza sativa growth rate at 1 uM
[4] = system: Oryza sativa; assay: Effect on Oryza sativa (rice) assessed as growth rate at 1 uM relative to control; format: organism-based; settings: in vivo
[5] = system: Oryza sativa; assay: Effect on Oryza sativa (rice) assessed as growth rate at 10 uM relative to control; format: organism-based; settings: in vivo
[6] = Hydrophobicity, log K of the compound; format: physicochemical; settings: octanol/water
[7] = system: Oryza sativa; assay: Safener indices, ratio of compound effect of Oryza sativa (rice) growth rate to relieving activity against bensulfuron-methyl induced injury to Oryza sativa growth rate at 0.1 uM
[8] = system: Oryza sativa; assay: Relieving activity against bensulfuron-methyl induced injury to Oryza sativa (rice) assessed as growth rate at 1 uM (Rbv = 46 to 53%); format: functional
[9] = system: Oryza sativa; assay: Relieving activity against bensulfuron-methyl induced injury to Oryza sativa (rice) assessed as growth rate at 10 uM (Rbv = 46 to 53%); format: functional
[10] = system: Oryza sativa; assay: Relieving activity against bensulfuron-methyl induced injury to Oryza sativa (rice) assessed as growth rate at 0.1 uM (Rbv = 46 to 53%); format: functional

Row | Structure (SMILES) | Activity [2] [%] | Activity [4] [%] | Activity [5] [%] | log K [6] | Ratio [1] | Ratio [3] | Ratio [7] | Activity [8] [%] | Activity [9] [%] | Activity [10] [%]
1 | C[C@H](NC(=O)Nc1cccc(Cl)c1Cl)c1ccccc1 | 100 | 100 | 101 | 0.646 | 96 | 91 | 76 | 96 | 98 | 89
2 | CC(=O)c1cccc(NC(=O)N[C@@H](C)c2ccccc2)c1 | 96 | 95 | 94 | 0.245 | 80 | 38 | 35 | 83 | 89 | 65
3 | C[C@H](NC(=O)Nc1ccc(Cl)cc1)c1ccccc1 | 103 | 101 | 101 | 0.439 | 74 | 64 | 21 | 83 | 88 | 63
4 | C[C@H](NC(=O)Nc1ccc(Cl)c(Cl)c1)c1ccccc1 | 98 | 97 | 99 | 0.61 | 81 | 57 | 39 | 78 | 90 | 70
5 | CCOC(=O)c1cccc(NC(=O)N[C@@H](C)c2ccccc2)c1 | 100 | 99 | 96 | 0.419 | 89 | 70 | 44 | 85 | 95 | 72
6 | C[C@H](NC(=O)Nc1ccccc1I)c1ccccc1 | 99 | 100 | 98 | 0.502 | 77 | 70 | 32 | 85 | 89 | 67
7 | C[C@H](NC(=O)Nc1ccc(C(C)(C)C)cc1)c1ccccc1 | 100 | 88 | 64 | 0.673 | 53 | 37 | 4 | 65 | 68 | 52
8 | COc1cccc(NC(=O)N[C@H](C)c2ccccc2)c1 | 104 | 92 | 70 | 0.277 | 57 | 27 | -5 | 63 | 73 | 54
9 | Cc1ccc(NC(=O)N[C@@H](C)c2ccccc2)c(F)c1 | 100 | 99 | 100 | 0.459 | 89 | 72 | 53 | 87 | 95 | 77

Further lines, with some results ahead:

Row | Activity [2] [%] | Activity [4] [%] | Activity [5] [%] | log K [6] | Structure (SMILES) | Ratio [1] | Ratio [3] | Ratio [7] | Activity [8] [%] | Activity [9] [%] | Activity [10] [%]
10 | 95 | 47 | 44 | 0.487 | CCc1ccc(NC(=O)N[C@H](C)c2ccccc2)cc1 | 32 | 24 | 15 | 43 | 47 | 56
11 | 99 | 79 | 49 | 0.577 | CC(C)c1ccc(NC(=O)N[C@H](C)c2ccccc2)cc1 | 34 | 47 | 7 | 67 | 49 | 49
12 | 98 | 96 | 92 | 0.307 | C[C@@H](NC(=O)Nc1ccc(F)cc1)c1ccccc1 | 52 | 16 | -3 | 55 | 73 | 47
13 | 103 | 99 | 103 | 0.47 | C[C@H](NC(=O)Nc1cccc(Cl)c1)c1ccccc1 | 82 | 57 | 31 | 79 | 92 | 68
14 | 100 | 93 | 53 | 0.831 | C[C@@H](NC(=O)Nc1cc(C(F)(F)F)cc(C(F)(F)F)c1)c1ccccc1 | 30 | 34 | 10 | 65 | 49 | 56
15 | 99 | 94 | 88 | 0.419 | CCOC(=O)c1cccc(NC(=O)N[C@H](C)c2ccccc2)c1 | 77 | 51 | 15 | 74 | 87 | 57
16 | 93 | 89 | 82 | 0.537 | C[C@@H](NC(=O)Nc1ccc(C(F)(F)F)cc1)c1ccccc1 | 42 | 53 | 22 | 74 | 67 | 59
17 | 100 | 99 | 99 | 1.266 | CCCCCCCc1ccc(NC(=O)N[C@@H](C)c2ccccc2)cc1 | 21 | 9 | 4 | 53 | 59 | 51
18 | 98 | 99 | 99 | 0.459 | Cc1ccc(NC(=O)N[C@H](C)c2ccccc2)c(F)c1 | 78 | 55 | 11 | 79 | 89 | 57
19 | 100 | 100 | 93 | 0.394 | C[C@@H](NC(=O)Nc1ccc(F)cc1F)c1ccccc1 | 66 | 21 | 4 | 61 | 82 | 53
20 | 99 | 99 | 98 | 0.624 | C[C@@H](NC(=O)Nc1cccc(C(F)(F)F)c1F)c1ccccc1 | 92 | 79 | 33 | 90 | 96 | 68
21 | 97 | 94 | 88 | 0.363 | C[C@H](NC(=O)Nc1cccc(F)c1)c1ccccc1 | 62 | 51 | 21 | 74 | 79 | 59
